Assay results as given in PubChem BioAssay (NCI).
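The compound was tested at five concentrations on cells cultured in 96-well plates, with a 48-hour exposure period. GI50: concentration for 50% inhibition of growth. At the TGI there is no net growth.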

Key:
Assay in all cases: NCI anticancer screen, dose series, 48 h
[1] = tested on: NCI-H23 lung
[2] = tested on: A549 NSCLC
[3] = tested on: SK-MEL-28 melanoma
[4] = tested on: IGROV1 ovarian
[5] = tested on: SF-539 CNS
[6] = tested on: OVCAR-3 ovarian
[7] = tested on: SF-268 CNS
[8] = tested on: 786-0 renal
[9] = tested on: A498 renal
[10] = tested on: MDA-MB-231 breast

For `O=c1nc2cc(-c3ccccc3)[nH]c2nn1-c1c(Cl)cc(Cl)cc1Cl`, the TGI [1] was 50.2 µM, the TGI [2] was 91.7 µM and the TGI [3] was over 100 µM. For the same compound, the TGI [4] was over 100 µM, the TGI [5] was 33.5 µM and the TGI [6] was 54.2 µM. The TGI [7] was over 100 µM, the TGI [8] was over 100 µM and the TGI [9] was 89.7 µM.

Compound `O=[N+]([O-])c1ccc(Cl)c(C2SCc3nc4ccccc4n32)c1` (stereo unspecified) has a TGI [1] of over 100 µM, a TGI [2] of over 100 µM and a TGI [3] of over 100 µM. It also gave a TGI [4] of over 100 µM, a TGI [5] of over 100 µM and a TGI [6] of over 100 µM. For the same compound, the TGI [7] was over 100 µM, the TGI [8] was over 100 µM and the TGI [9] was over 100 µM.

`COc1ccc(O)c2c1C(=O)CCCC2=O` was tested, and the TGI [1] was over 100 µM, the TGI [2] was over 100 µM and the TGI [3] was over 100 µM. It also gave a TGI [4] of over 100 µM, a TGI [5] of over 100 µM and a TGI [6] of over 100 µM. The TGI [7] was over 100 µM, the TGI [8] was over 100 µM and the TGI [9] was over 100 µM.

With `Cc1nc(C(N)=S)sc1C(=O)/C=C/c1cccc(O)c1` the TGI [1] was over 100 µM, the TGI [2] was over 100 µM and the TGI [3] was over 100 µM. For the same compound, the TGI [4] was over 100 µM, the TGI [5] was over 100 µM and the TGI [6] was over 100 µM. For the same compound, the TGI [7] was over 100 µM, the TGI [8] was over 100 µM and the TGI [9] was over 100 µM.

`COc1ccc(NC(=O)C(=O)C2NC(=S)NC2=O)c(OC)c1` (stereo unspecified) showed a TGI [1] of over 100 µM, a TGI [2] of over 100 µM and a TGI [3] of over 100 µM. It also gave a TGI [4] of over 100 µM, a TGI [5] of over 100 µM and a TGI [6] of over 100 µM. The TGI [7] was over 100 µM, the TGI [8] was over 100 µM and the TGI [9] was over 100 µM.

In the case of `COc1cc2c(cc1C)n(O)c(C)c(C(=O)C/C(=N/NC(=O)C[N+](C)(C)C)C(=O)Nc1cccc(Cl)c1C)[n+]2=O`, the TGI [1] was over 100 µM, the TGI [2] was over 100 µM and the TGI [3] was over 100 µM. It also gave a TGI [4] of over 100 µM, a TGI [5] of over 100 µM and a TGI [6] of over 100 µM. For the same compound, the TGI [7] was over 100 µM, the TGI [8] was over 100 µM and the TGI [9] was over 100 µM.

In the case of `C=C(C)C1/C=C(/C(C)C)CC[C@]2(C)O[C@@H]2CC[C@H](C)CC1=O` (stereo partly specified), the GI50 [1] was 87 µM, the TGI [1] was over 100 µM and the GI50 [2] was 48.5 µM. For the same compound, the TGI [2] was over 100 µM, the GI50 [3] was over 100 µM and the TGI [3] was over 100 µM. It also gave a GI50 [4] of 77.8 µM, a TGI [4] of over 100 µM and a GI50 [6] of 25.4 µM. It also gave a TGI [6] of 81.1 µM, a GI50 [7] of over 100 µM and a TGI [7] of over 100 µM. The GI50 [8] was 32.4 µM, the TGI [8] was over 100 µM and the GI50 [9] was 83.4 µM. For the same compound, the TGI [9] was over 100 µM.

`c1ccc(-c2nc(N3CCNCC3)c3nc(-c4ccccc4)oc3n2)cc1` gave a GI50 [1] of 1.76 µM, a TGI [1] of 3.32 µM and a GI50 [10] of 1.67 µM. It also gave a TGI [10] of 3.2 µM, a GI50 [3] of 1.81 µM and a TGI [3] of 3.29 µM. For the same compound, the GI50 [4] was 1.65 µM, the TGI [4] was 3.14 µM and the GI50 [5] was 1.72 µM. For the same compound, the TGI [5] was 3.13 µM, the GI50 [6] was 1.78 µM and the TGI [6] was 3.25 µM. For the same compound, the GI50 [7] was 1.73 µM, the TGI [7] was 3.46 µM and the GI50 [8] was 1.63 µM. It also gave a TGI [8] of 3.46 µM, a GI50 [9] of 1.42 µM and a TGI [9] of 2.76 µM.

With `CC(=O)OC1CCC2(C)C(=CC(C3C=C4CC(OC(C)=O)CCC4(C)C4=C3C3CC5OC6(CCC(C)CO6)C(C)C5C3(C)CC4)C3=C2CCC2(C)C3CC3OC4(CCC(C)CO4)C(C)C32)C1` (stereo unspecified) the TGI [1] was 27.9 µM, the TGI [2] was 26.5 µM and the TGI [10] was 32 µM. It also gave a TGI [3] of 31.5 µM, a TGI [4] of 23.6 µM and a TGI [6] of 28.6 µM. For the same compound, the TGI [7] was 23.5 µM, the TGI [8] was 29.6 µM and the TGI [9] was 30.8 µM.

Work on `CCC1(CN(C)C)CC/C(=C\c2ccc3c(c2)OCO3)C1=O` (stereo unspecified) yielded a TGI [1] of over 100 µM, a TGI [2] of over 100 µM and a TGI [3] of over 100 µM. The TGI [4] was over 100 µM, the TGI [5] was over 100 µM and the TGI [6] was over 100 µM. It also gave a TGI [7] of over 100 µM, a TGI [8] of over 100 µM and a TGI [9] of over 100 µM.

`COC(=O)C1=C(C(=O)OC)C2(C(=O)OC)OC1(OC)C(C1(C(=O)OC)C(C(=O)OC)=C1C(=O)OC)=C2C(=O)OC` (stereo unspecified) gave a TGI [1] of over 100 µM, a TGI [2] of over 100 µM and a TGI [3] of over 100 µM. The TGI [4] was over 100 µM, the TGI [5] was over 100 µM and the TGI [6] was over 100 µM. It also gave a TGI [7] of over 100 µM and a TGI [8] of over 100 µM.

`COc1ccc(NC(=O)c2cc(OC)c(OC)c(OC)c2)cc1O` was tested, and the GI50 [1] was 5.32 µM, the TGI [1] was over 100 µM and the GI50 [2] was 4.59 µM. It also gave a TGI [2] of over 100 µM, a GI50 [10] of 6.79 µM and a TGI [10] of over 100 µM. It also gave a GI50 [3] of 28.1 µM, a TGI [3] of over 100 µM and a GI50 [4] of 8.86 µM. It also gave a TGI [4] of over 100 µM, a GI50 [5] of 2.75 µM and a TGI [5] of over 100 µM. For the same compound, the GI50 [7] was 5.43 µM, the TGI [7] was over 100 µM and the GI50 [8] was 45.7 µM. It also gave a TGI [8] of over 100 µM, a GI50 [9] of 2.73 µM and a TGI [9] of 32.9 µM.

Work on `COc1cc(C2C(C(=O)Nc3ccccc3)=C(C)NC(C)=C2C(=O)Nc2ccccc2)ccc1O` yielded a TGI [1] of over 100 µM, a TGI [2] of over 100 µM and a TGI [3] of over 100 µM. The TGI [4] was over 100 µM, the TGI [5] was 52.9 µM and the TGI [6] was 55.9 µM. The TGI [7] was over 100 µM, the TGI [8] was over 100 µM and the TGI [9] was over 100 µM.

`Cc1cc(C)nc(NS(=O)(=O)c2ccc(NC(=O)c3cccc4cc5ccccc5nc34)cc2)n1` gave a TGI [1] of 86.5 µM, a TGI [2] of over 100 µM and a TGI [3] of over 100 µM. For the same compound, the TGI [4] was over 100 µM, the TGI [5] was 34 µM and the TGI [6] was 65.3 µM. The TGI [7] was over 100 µM, the TGI [8] was over 100 µM and the TGI [9] was 50.5 µM.

In the case of `Cc1ccc(Nc2ccc(Nc3ccc(C)cc3)c3c2C(=O)c2c(O)ccc(O)c2C3=O)cc1`, the TGI [1] was over 100 µM, the TGI [2] was over 100 µM and the TGI [3] was over 100 µM. It also gave a TGI [4] of over 100 µM, a TGI [5] of over 100 µM and a TGI [6] of over 100 µM. It also gave a TGI [7] of over 100 µM, a TGI [8] of over 100 µM and a TGI [9] of over 100 µM.

`Fc1ccccc1C1CC(C(c2ccccc2)c2ccccc2)=Nc2ccccc2S1` (stereo unspecified) gave a TGI [1] of 24.7 µM, a TGI [2] of 46.4 µM and a TGI [3] of 25.1 µM. For the same compound, the TGI [4] was 28.8 µM, the TGI [5] was 50.4 µM and the TGI [6] was 24.4 µM. The TGI [7] was 26.1 µM, the TGI [8] was 16.2 µM and the TGI [9] was 20 µM.

For `CC1=C2C(c3ccccc3)(c3ccccc3)C3C=CC2(C=N3)N(C(=O)NC2CCCCC2)C1=O` (stereo unspecified), the TGI [1] was 32.5 µM, the TGI [2] was 32.8 µM and the TGI [3] was 30.6 µM. The TGI [4] was 35.7 µM, the TGI [5] was 30.7 µM and the TGI [6] was 28.2 µM. The TGI [7] was 34.7 µM, the TGI [8] was 29.4 µM and the TGI [9] was 31.6 µM.

Compound `Fc1ccc(-c2ncn(C3CCNCC3)c2-c2ccnc(Oc3cccc(F)c3)n2)cc1` has a GI50 [2] of 24.7 µM, a TGI [2] of over 25 µM and a GI50 [10] of 9.99 µM. It also gave a TGI [10] of over 25 µM, a GI50 [3] of 5.46 µM and a TGI [3] of 11.6 µM. For the same compound, the GI50 [4] was 12.4 µM, the TGI [4] was over 25 µM and the GI50 [5] was 10.7 µM. It also gave a TGI [5] of over 25 µM, a GI50 [6] of over 20.9 µM and a TGI [6] of over 25 µM. For the same compound, the GI50 [7] was over 23.3 µM, the TGI [7] was over 25 µM and the GI50 [8] was over 23.5 µM. For the same compound, the TGI [8] was over 25 µM, the GI50 [9] was over 25 µM and the TGI [9] was over 25 µM.

In the case of `COc1ccc2c(c1)CC[C@@H]1C2CC[C@]2(C)C(=O)NC(=O)CC12` (stereo partly specified), the TGI [1] was over 100 µM, the TGI [2] was over 100 µM and the TGI [4] was over 100 µM. For the same compound, the TGI [5] was over 100 µM, the TGI [6] was over 100 µM and the TGI [7] was over 100 µM. The TGI [8] was over 100 µM and the TGI [9] was over 100 µM.

Compound `CCN(CC)CCCNC(=O)Cc1ccccc1Nc1c(Cl)cccc1Cl` has a TGI [1] of 32.2 µM, a TGI [2] of 36.2 µM and a TGI [3] of 25.4 µM. For the same compound, the TGI [4] was 36.5 µM, the TGI [5] was 28.7 µM and the TGI [6] was 31.5 µM. For the same compound, the TGI [7] was 31.2 µM and the TGI [8] was 21.8 µM.
